This passage reports IC50 and Ratio results from ChEMBL document CHEMBL1153681 (Bioorg Med Chem Lett, 1992).

The species named for one assay is Cavia porcellus. Briefly: Evaluated for its ability to inhibit electrically induced contractions in the guinea pig ileum (GPI). It is filed as functional, organism-based.
A further assay deals with Mu-type opioid receptor (Rattus norvegicus, UniProt P33535).
Assay [1] in a line: Ratio of the ability to inhibit electrically induced contractions in the mouse vas deferens (MVD) to that of the guinea pig ileum (GPI). In kind it is functional.
The species entered for a further assay is Mus musculus. Briefly: Evaluated for its ability to inhibit electrically induced contractions in the mouse vas deferens (MVD). It is filed as functional, organism-based.
Assay [2] addresses Delta-type opioid receptor (Rattus norvegicus, UniProt P33533). Briefly: Evaluated for its affinity towards Opioid receptor delta 1 in rat fore brain by displacing the radioligand [3H]DPDPE.

Chain of Mu-type opioid receptor (P33535 whole entry): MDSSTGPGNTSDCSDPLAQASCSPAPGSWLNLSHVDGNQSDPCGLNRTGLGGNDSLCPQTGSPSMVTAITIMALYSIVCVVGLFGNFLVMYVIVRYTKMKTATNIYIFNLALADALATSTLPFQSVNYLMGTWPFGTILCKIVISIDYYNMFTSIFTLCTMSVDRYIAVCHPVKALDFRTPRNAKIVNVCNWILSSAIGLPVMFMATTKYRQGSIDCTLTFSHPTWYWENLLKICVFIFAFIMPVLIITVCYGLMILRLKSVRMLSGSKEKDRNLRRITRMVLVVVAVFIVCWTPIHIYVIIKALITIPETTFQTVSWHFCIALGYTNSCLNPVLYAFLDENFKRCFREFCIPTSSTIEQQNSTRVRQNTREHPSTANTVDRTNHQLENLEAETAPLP
Chain of Delta-type opioid receptor (P33533 whole entry): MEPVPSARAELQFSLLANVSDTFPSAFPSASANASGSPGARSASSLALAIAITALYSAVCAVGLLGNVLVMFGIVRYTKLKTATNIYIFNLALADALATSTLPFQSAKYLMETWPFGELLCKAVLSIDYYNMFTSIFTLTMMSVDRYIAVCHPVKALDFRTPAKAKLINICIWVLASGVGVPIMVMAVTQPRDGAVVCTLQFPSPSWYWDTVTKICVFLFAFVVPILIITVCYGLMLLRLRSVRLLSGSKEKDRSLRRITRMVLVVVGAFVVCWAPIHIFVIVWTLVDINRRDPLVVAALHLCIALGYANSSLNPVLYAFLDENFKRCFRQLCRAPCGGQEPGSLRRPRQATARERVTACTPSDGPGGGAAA
Description for Mu-type opioid receptor: Evaluated for its affinity towards Opioid receptor mu 1 in rat forebrain by displacing the radioligand [3H]sufentanil.

Turning to `C[C@@H](NC(=O)[C@@H](N)Cc1ccc(O)cc1)C(=O)N[C@@H](Cc1ccccc1)C(=O)NCC(=O)N[C@@H](Cc1ccc(O)cc1)C(=O)N1CCC[C@H]1C(=O)N[C@@H](CO)C(N)=O` [DERMORPHIN], the IC50 (usually the concentration at which inhibition is half-maximal) in the assay filed under Cavia porcellus was found to be 1.06 nM; at Mu-type opioid receptor, 2.4 nM.

`CC(C)[C@H](NC(=O)[C@H](CC(=O)O)NC(=O)[C@H](Cc1ccccc1)NC(=O)[C@@H](C)NC(=O)[C@@H](N)Cc1ccc(O)cc1)C(=O)N[C@H](C(=O)NCC(N)=O)C(C)C` [DELTORPHIN C]: the Ratio entry in assay [1] is listed as “<=0.0001”. For the same compound, the figures for the IC50 in the assay filed under Cavia porcellus and in the assay filed under Mus musculus were at least 3000 nM and 0.32 nM, respectively.

For `C[C@H](NC(=O)[C@@H](N)Cc1ccc(O)cc1)C(=O)N[C@H]1Cc2ccccc2CN(CC(=O)N[C@@H](Cc2ccc(O)cc2)C(=O)N2CCC[C@H]2C(=O)N[C@@H](CO)C(N)=O)C1=O`, in assay [1], the Ratio is given as 0.06. Besides, the IC50 is 17.4 nM in assay [2], 10.8 nM in the assay listed under Cavia porcellus, 11 nM against Mu-type opioid receptor and 0.66 nM in the assay filed under Mus musculus.
